Data on one compound can be found in article PMC12654037, “Norditerpene Natural Products from Subterranean Fungi with Anti-Parasitic Activity” (Microorganisms, 2025).

For the experiment, the system named is C. parvum oocysts. In words: C. parvum oocyst excystation assay. The experiment is classed as cell-based, Cryptosporidium parvum. The conditions noted are these: 7.5 µM, 1-hour incubation. How it is done:
C. parvum excystation and invasion assays: Oocyst excystation rates in the presence of compounds were determined as previously described. The C. parvum invasion inhibition assays were conducted in two formats. In the first format, described previously, HCT-8 cells were seeded on glass slides (CELLTREAT Scientific Product, Pepperell, MA, USA) and allowed to grow to confluence. Oidiolactone A was added to the cells for one hour. TrtE and DMSO were run in parallel as positive and negative controls, respectively. The cell monolayers were then infected with 1.2 × 10^6 wild-type C. parvum oocysts. After 3 h of incubation at 37 °C, the slides were washed five times with 111 mM D-galactose, fixed with 4% paraformaldehyde, and permeabilized with 0.25% Triton-X. C. parvum sporozoites were detected with rabbit anti-gp40 [39] and Alexa Fluor 594 goat anti-rabbit antibodies. The HCT-8 cell nuclei were stained with 0.09 mM Hoechst. Slides were coded to enable unbiased counting, and sporozoites from at least 10 randomly selected fields were counted in each sample at 100× magnification (Zeiss® Axioscope 5). The percentage of invaded parasites was determined using the following equation: % Invaded parasites = [parasitescompound/parasitesDMSO] × 100. This experiment was run in duplicate with two biological replicates.

For `CO[C@H]1OC(=O)C=C2[C@@]13O[C@@H]3[C@H]1OC(=O)[C@@]3(C)CCC[C@@]2(C)[C@@H]13` [compound 1, oidiolactone A], the “effect on oocyst excystation” value is “no effect”.
